Test [1] relates to Mesenteric artery. Briefly: Vasodilating activity against U46619-induced contractions in Wistar rat endothelium intact main mesenteric artery assessed as increase in sensitivity relative to scopoletin. The test is classed as functional.
Test [2] concerns Mesenteric artery. Briefly: Vasodilating activity in Wistar rat endothelium intact main mesenteric artery assessed as inhibition of U46619-induced contractions. As to conditions: for EC50: Rattus norvegicus, Wistar, Mesenteric artery. The test is classed as functional, tissue-based.
Test [3] relates to Mesenteric artery. Briefly: Vasodilating activity in Wistar rat endothelium intact main mesenteric artery assessed as inhibition of U46619-induced contractions at 30 uM relative to control. Format: functional.
The subject of test [4] is Mesenteric artery. Briefly: Vasodilating activity in Wistar rat endothelium intact main mesenteric artery assessed as inhibition of U46619-induced contractions at 1000 uM relative to control. Format: functional.
The subject of test [5] is Mesenteric artery. Briefly: Vasodilating activity in Wistar rat endothelium intact main mesenteric artery preconstricted with 100 nM U46619 assessed as vasorelaxation relative to control. Format: functional.
In test [6] the test system is Mesenteric artery. Briefly: Vasodilating activity in Wistar rat main mesenteric artery preconstricted with 100 nM U46619 assessed as vasorelaxation relative to control. Format: functional.
For test [7], the system named is Mesenteric artery. Briefly: Vasodilating activity in Wistar rat endothelium intact main mesenteric artery preconstricted with 100 nM U46619 assessed as vasorelaxation. The test is classed as functional, tissue-based.
For test [8], the system named is Mesenteric artery. Briefly: Vasodilating activity in Wistar rat endothelium-denuded main mesenteric artery preconstricted with 100 nM U46619 assessed as vasorelaxation. The test is classed as functional, tissue-based.
Test [9] has as its system Mesenteric artery. Briefly: Vasodilating activity in Wistar rat main mesenteric artery preconstricted with 100 nM U46619 assessed as vasorelaxation in presence of 80 mM KCl relative to control. The test is classed as functional.
Test [10] relates to Mesenteric artery. Briefly: Vasodilating activity in Wistar rat endothelium-denuded main mesenteric artery preconstricted with 100 nM U46619 assessed as vasorelaxation relative to control. Format: functional.
Test [11] concerns Mesenteric artery. Briefly: Vasodilating activity in Wistar rat main mesenteric artery preconstricted with 100 nM U46619 assessed as relaxation preincubated for 20 mins in presence of 1 mM tetraethyl ammonium relative to control. The test is classed as functional.

As a reminder, the EC50 is the concentration needed to bring the measured effect to its halfway point. Usually Emax stands for the size of the effect at its maximum, as opposed to the concentration needed. On to `CCCCCN(C)C(=O)COc1cc2ccc(=O)oc2c2c1OC(C)(C)C=C2`, for which, in the test with Mesenteric artery [1], the “fold change (FC)” value stood at 29.4. For the same compound, in the test on Mesenteric artery [2], the pD2 came to 5.419 and the EC50 came to 3.81 µM. Besides, in the test with Mesenteric artery [3], the Emax at 30 µM turned out to be 94%.

As to `CC(CN(C)C)Oc1cc2ccc(=O)oc2c2c1OC(C)(C)C=C2` (stereo not given), the maximal response (Emax) at 30 µM in the test on Mesenteric artery [3] was below 10%.

Consider `CC1(C)C=Cc2c(c(OCCN3CCCC3)cc3ccc(=O)oc23)O1`, for which the maximal response (Emax) at 30 µM in the test on Mesenteric artery [3] was below 10%.

For the compound `CCCCCN(C)C(=O)CCCCOc1cc2ccc(=O)oc2c2c1OC(C)(C)C=C2`, the “fold change (FC)” value with Mesenteric artery [1] was 22.31. For the same compound, in the test with Mesenteric artery [2], the pD2 is listed as 5.299 and the concentration giving a half-maximal response (EC50) was 5.02 µM. In the test with Mesenteric artery [3], the Emax at 30 µM stood at 83.1%.

For `CCCCN(C)C(=O)COc1cc2ccc(=O)oc2c2c1OC(C)(C)C=C2`, in the test with Mesenteric artery [1], the “fold change (FC)” value is 42.11. In addition, in the test with Mesenteric artery [2], the pD2 is given as 5.575 and the EC50 was determined as 2.66 µM. In addition, the Emax at 30 µM in the test on Mesenteric artery [3] is 65.7%.

In the case of `CN(C)CCOc1cc2ccc(=O)oc2c2c1OC(C)(C)C=C2`, the maximum response (Emax) at 30 µM in the test on Mesenteric artery [3] was below 10%.

For `CCCCN(C)C(=O)CCCOc1cc2ccc(=O)oc2c2c1OC(C)(C)C=C2`, the Emax at 30 µM in the test on Mesenteric artery [3] was below 10%.

Turning to `COc1cc2ccc(=O)oc2cc1O` [SCOPOLETIN], the maximum response (Emax) at 1000 µM in the test on Mesenteric artery [4] was determined as 89.2%. In addition, in the test with Mesenteric artery [2], the pD2 was 3.95 and the half-maximal effective concentration (EC50) came out at 112 µM.

As for `CCCCN(C)C(=O)CCCCOc1cc2ccc(=O)oc2c2c1OC(C)(C)C=C2`, the “fold change (FC)” value with Mesenteric artery [1] turned out to be 52.83. In the test on Mesenteric artery [2], the pD2 is 5.674 and the concentration giving a half-maximal response (EC50) was found to be 2.12 µM. In addition, the Emax at 30 µM in the test on Mesenteric artery [3] amounted to 63.6%.

Take `COc1cc2ccc(=O)oc2c2c1OC(C)(C)C=C2`: the Emax was 94.9% in the test with Mesenteric artery [5]; 94% in the test on Mesenteric artery [6]; 53.3% in the test on Mesenteric artery [9]; 93.7% in the test with Mesenteric artery [10]; 54.1% with Mesenteric artery [11]. Also, in the test on Mesenteric artery [1], the “fold change (FC)” value was found to be 70.89. Further, the pD2 in the test with Mesenteric artery [2] is 5.802. Also, in the test with Mesenteric artery [2], the 50% effective concentration (EC50) came to 1.58 µM. Moreover, the Activity result with Mesenteric artery [7] and in the test with Mesenteric artery [8] was “Dose-dependent effect” in each case. In addition, the Emax at 30 µM in the test on Mesenteric artery [3] is 96.7%.

On to `CCCCCN(C)C(=O)CCCOc1cc2ccc(=O)oc2c2c1OC(C)(C)C=C2`, for which, in the test with Mesenteric artery [1], the “fold change (FC)” value came to 34.67. Further, in the test on Mesenteric artery [2], the pD2 worked out at 5.491 and the concentration giving a half-maximal response (EC50) was 3.23 µM. In the test on Mesenteric artery [3], the maximal effect (Emax) at 30 µM worked out at 95.1%.

With `CC1(C)C=Cc2c(c(OCCN3CCCCC3)cc3ccc(=O)oc23)O1`, the maximal response (Emax) at 30 µM with Mesenteric artery [3] is below 10%.

As for `CCN(CC)CCOc1cc2ccc(=O)oc2c2c1OC(C)(C)C=C2`, the maximum response (Emax) at 30 µM in the test on Mesenteric artery [3] is below 10%.

Source of the values: ChEMBL document CHEMBL4342429, “Synthesis and evaluation of substituted 8,8-dimethyl-8H-pyrano[2,3-f]chromen-2-one derivatives as vasorelaxing agents” (Bioorg Med Chem Lett, 2020).
